Tests used:
[1] = Pharmacokinetic study: diflunisal levels in plasma after oral administration in mice; type: in vivo; conditions: 0.05 mmol/kg
Experimental: Diflunisal is detected in plasma of mice orally dosed with the compound described in Example 5 or the compound described in Example 8 (0.05 mmol/kg) (table 3).
Male cd-1 mice weighing 25-30 g are purchased from Charles River Laboratories Spain. The animals are housed in animal quarters at 22° C. with a 12-h light/12-h dark cycle and fed ad libitum. O/N fasted animals are dosed at […] with 0.05 mmol/kg of the indicated compound. […] Plasma was separated after centrifugation of blood and kept at −20° C. until metabolites determination.

[2] = In vitro cleavage studies: incubation with human liver S9 fraction, release of the NSAID; type: in vitro ADME; conditions: after 1 h of incubation
Experimental: Table 1 and 2 summarize in vitro data showing that thiocarbonate compounds are hydrolyzed in the presence of human liver S9 fraction and release the NSAID component, Diflunisal (Table 1) or salicylate (Table 2).
The compounds are incubated with human liver S9 fraction to study its metabolic stability and to profile and identify the forming metabolites. The basic incubation mixture of 500 μl in volume consisted of the following components: 1.5 mg of protein per ml, substrate in DMSO, 1 mM NADPH, 1 mM UDPGA, 1 mM PAPS and 1 mM GSH. The substrate concentration used was 2 μM. The final amount of DMSO in the incubation was 1% (v/v). Each reaction mixture was preincubated for 2 minutes at +37° C. The reaction was started by addition of cofactors. After an incubation of 60 min, a 100 μl sample was collected and the reaction was terminated by adding an equal volume of ice-cold acetonitrile. Samples were subsequently cooled in an ice bath for 15 minutes and analyzed. […] The samples are analyzed by HPLC/TOF-MS to monitor both the disappearance of the parent compound and formation of metabolites. […] In addition to ion source conditions optimised to produce molecular ions with high abundance, the samples from last time point (60 min) are analysed also using another parameters (higher aperture voltage) to generate high-resolution in-source fragment ion data. […]

db/db mice = assay: Reduction of fasting glycemia in db/db mice; type: in vivo; conditions: db/db mice treated for two weeks with a daily dose, versus vehicle; t-test p less than 0.01 (FIG. 1)
Experimental: 5-weeks old male mice C57BL/Ks bearing the db/db mutation (The Jackson Laboratories) and 7-weeks old male mice C57BL/6 bearing the ob/ob mutation are purchased from Charles River Laboratories Spain (Sant Cugat del Vallès, Spain) are treated with compounds as disclosed herein for a month, administered by single oral injection. Glycemia levels are determined in blood from the Tail Vein, using a rapid glucose analyzer (Accu-Chek Aviva; Roche) 3 times per week, as well as body weight measure. The food and water intake is measured twice a week.
db/db mice were treated for two weeks with a daily dose of the compound of Example 8, (R)-2-acetamido-3-((2′,4′-difluoro-3-(propoxycarbonyl)biphenyl-4-yloxy)carbonylthio) propanoic acid, or with vehicle.

| Compound | Diflunisal detected in plasma of orally dosed mice [1] | Release of the NSAID (diflunisal or salicylate) on incubation in the presence of human liver S9 fraction [2] | Fasting glycemia (db/db mice) |
| --- | --- | --- | --- |
| COC(=O)c1cc(-c2ccc(F)cc2F)ccc1OC(=O)SCCC(NC(C)=O)C(=O)O (racemic) [Example 5, (+/−)-2-Acetamido-4-((2′,4′-difluoro-3-(methoxycarbonyl)biphenyl-4-yloxy)carbonylthio)butanoic acid] | detected | – | – |
| COC(=O)c1ccccc1OC(=O)SC[C@H](NC(C)=O)C(=O)O [Example 2, (R)-2-Acetamido-3-((2-(methoxycarbonyl)phenoxy)carbonylthio)propanoic acid] | – | no diflunisal or salicylate has been detected | – |
| CC(=O)N[C@@H](CSC(=O)Oc1ccccc1C(=O)OCc1ccccc1)C(=O)O [Example 4, (R)-2-Acetamido-3-((2-(benzyloxycarbonyl)phenoxy)carbonylthio) propanoic acid] | – | no diflunisal or salicylate has been detected | – |
| CCCOC(=O)c1cc(-c2ccc(F)cc2F)ccc1OC(=O)SC[C@H](NC(C)=O)C(=O)O [Example 8, (R)-2-Acetamido-3-((2′,4′-difluoro-3-(propoxycarbonyl)biphenyl-4-yloxy)carbonylthio)propanoic acid] | detected | – | significantly reduced |

— patent US8466197B2, “Thiocarbonates as anti-inflammatory and antioxidant compounds useful for treating metabolic disorders” (Genmedica Therapeutics SL, priority 2010, dated 2013)
